From US4401660A, “Ester derivatives of 5-O-mycaminosyl tylonolide and method of using same” (Eli Lilly and Company, priority 1981, dated 1983)
Where two headings read alike, the source gives them in different places.

Columns and labels:
[1] = tested on: Haemophilus influenzae Holt; test: MIC, standard agar-dilution assay (Table II); assay type: cell-based; set-up: unit not given here; details: ampicillin-sensitive strain
Procedure: (§1) The MIC's in Table II were determined by standard agar-dilution assays. The MIC's in Table III were obtained using a conventional broth-dilution microtiter test.

[2] = tested on: Haemophilus influenzae R252; test: MIC, standard agar-dilution assay (Table II); assay type: cell-based; set-up: unit not given here; details: Haemophilus influenzae R252, ampicillin-resistant strain
Procedure: as §1

[3] = tested on: Staphylococcus aureus S13E; test: MIC, standard agar-dilution assay (Table II); assay type: cell-based; set-up: unit not given here
Procedure: as §1

[4] = tested on: Staphylococcus aureus V41; test: MIC, standard agar-dilution assay (Table II); assay type: cell-based; set-up: unit not given here; details: Staphylococcus aureus V41, penicillin-resistant strain
Procedure: as §1

[5] = tested on: Staphylococcus aureus X1.1; test: MIC, standard agar-dilution assay (Table II); assay type: cell-based; set-up: unit not given here
Procedure: as §1

[6] = tested on: Staphylococcus aureus X400; test: MIC, standard agar-dilution assay (Table II); assay type: cell-based; set-up: unit not given here; details: Staphylococcus aureus X400, methicillin-resistant strain
Procedure: as §1

[7] = tested on: Staphylococcus epidermidis EPI1; test: MIC, standard agar-dilution assay (Table II); assay type: cell-based; set-up: unit not given here
Procedure: as §1

[8] = tested on: Staphylococcus epidermidis EPI2; test: MIC, standard agar-dilution assay (Table II); assay type: cell-based; set-up: unit not given here
Procedure: as §1

[9] = tested on: Streptococcus Group D 9960; test: MIC, standard agar-dilution assay (Table II); assay type: cell-based; set-up: unit not given here
Procedure: as §1

[10] = tested on: Streptococcus Group D X66; test: MIC, standard agar-dilution assay (Table II); assay type: cell-based; set-up: unit not given here
Procedure: as §1

[11] = tested on: Streptococcus pneumoniae Park I; test: MIC, standard agar-dilution assay (Table II); assay type: cell-based; set-up: unit not given here
Procedure: as §1

[12] = tested on: Streptococcus pyogenes C203; test: MIC, standard agar-dilution assay (Table II); assay type: cell-based; set-up: unit not given here
Procedure: as §1

Mycoplasma gallisepticum = test: MIC, broth-dilution microtiter test (Table III); assay type: cell-based; set-up: unit not given here
Procedure: as §1

Mycoplasma hyorhinis = test: MIC, broth-dilution microtiter test (Table III); assay type: cell-based; set-up: unit not given here
Procedure: as §1

Mycoplasma synoviae = test: MIC, broth-dilution microtiter test (Table III); assay type: cell-based; set-up: unit not given here
Procedure: as §1

[13] = tested on: Pasteurella haemolytica 22C; test: MIC, broth-dilution microtiter test (Table III); assay type: cell-based; set-up: unit not given here
Procedure: as §1

[14] = tested on: Pasteurella haemolytica 23C; test: MIC, broth-dilution microtiter test (Table III); assay type: cell-based; set-up: unit not given here
Procedure: as §1

[15] = tested on: Pasteurella haemolytica 41D; test: MIC, broth-dilution microtiter test (Table III); assay type: cell-based; set-up: unit not given here
Procedure: as §1

[16] = tested on: Pasteurella multocida 17E; test: MIC, broth-dilution microtiter test (Table III); assay type: cell-based; set-up: unit not given here; details: bovine isolate
Procedure: as §1

[17] = tested on: Pasteurella multocida 22A; test: MIC, broth-dilution microtiter test (Table III); assay type: cell-based; set-up: unit not given here
Procedure: as §1

[18] = tested on: Pasteurella multocida 40G; test: MIC, broth-dilution microtiter test (Table III); assay type: cell-based; set-up: unit not given here
Procedure: as §1

[19] = tested on: Pasteurella multocida 60A; test: MIC, broth-dilution microtiter test (Table III); assay type: cell-based; set-up: unit not given here; details: avian isolate
Procedure: as §1

[20] = tested on: Pasteurella multocida 68C; test: MIC, broth-dilution microtiter test (Table III); assay type: cell-based; set-up: unit not given here
Procedure: as §1

Staphylococcus aureus = test: MIC, broth-dilution microtiter test (Table III); assay type: cell-based; set-up: unit not given here
Procedure: as §1

Streptococcus sp. 80 = test: MIC, broth-dilution microtiter test (Table III); assay type: cell-based; set-up: unit not given here
Procedure: as §1

[21] = tested on: Streptococcus pyogenes C203; test: ED50 in mice with experimental infections (Table IV); assay type: in vivo; details: Streptococcus pyogenes, doses given 1 and 4 hours postinfection
Procedure: The OMT ester derivatives of this invention have shown in vivo antimicrobial activity against experimental bacterial infections caused by gram-positive bacteria. When two doses of test compound were administered to mice with experimental infections, the activity observed was measured as an ED50 value [effective dose in mg/kg to protect 50% of the test animals: see Warren Wick, et al., J. Bacteriol. 81, 233-235 (1961)].
^a mg/kg × 2; doses given 1 and 4 hours postinfection

Pasteurella multocida = test: Treatment of Pasteurella infections in chicks (Table V); assay type: in vivo, one-day-old chicks; details: Pasteurella multocida, sc, 4 h; 30 mg/kg by subcutaneous injection one and four hours post challenge; read-out: Deaths in Treated Chicks/Number Treated (converted)
Procedure: Certain OMT ester derivatives are active in vivo against Pasteurella infections. Table V summarizes the results of tests in which the ester derivatives were administered to one-day-old chicks at a dosage level of 30 mg/kg by subcutaneous injection one and four hours post challenge of the chicks with Pasteurella multocida (0.1 ml of a 10^-3 dilution of a 20-hour tryptose broth culture of avian P. multocida given subcutaneously). All nonmedicated infected chicks (ten in each control group) died within 24 hours of Pasteurella challenge.

[22] = C203, oral, read-out: ED50, Oral
[23] = C203, sc, subcutaneous, read-out: ED50, Subcutaneous

Row | SMILES | minimal inhibitory concentration (MIC) [1] | minimal inhibitory concentration (MIC) [2] | minimal inhibitory concentration (MIC) [3] | minimal inhibitory concentration (MIC) [4] | minimal inhibitory concentration (MIC) [5] | minimal inhibitory concentration (MIC) [6] | minimal inhibitory concentration (MIC) [7] | minimal inhibitory concentration (MIC) [8] | minimal inhibitory concentration (MIC) [9] | minimal inhibitory concentration (MIC) [10] | minimal inhibitory concentration (MIC) [11] | minimal inhibitory concentration (MIC) [12] | minimal inhibitory concentration (MIC) (Mycoplasma gallisepticum) | minimal inhibitory concentration (MIC) (Mycoplasma hyorhinis) | minimal inhibitory concentration (MIC) (Mycoplasma synoviae) | minimal inhibitory concentration (MIC) [13] | minimal inhibitory concentration (MIC) [16] | minimal inhibitory concentration (MIC) [19] | minimal inhibitory concentration (MIC) (Staphylococcus aureus) | minimal inhibitory concentration (MIC) (Streptococcus sp. 80) | also measured
1 | CCC(=O)OC1C(C)OC(OC2C(CC=O)CC(C)C(=O)C=CC(C)=CC(CO)C(CC)OC(=O)CC(O)C2C)C(OC(=O)CC)C1N(C)C (centres unmarked) [Compound 4] | 4 | 4 | 2 | 4 | 2 | 2 | 1 | 4 | 2 | 1 | 8 | 0.5 | 0.39 | 1.56 | 0.78 | 6.25 | 3.12 | 3.12 | 1.56 | < 0.78 | minimal inhibitory concentration (MIC) [14]: 6.25; minimal inhibitory concentration (MIC) [15]: 12.5; minimal inhibitory concentration (MIC) [17]: 3.12; minimal inhibitory concentration (MIC) [18]: 6.25; minimal inhibitory concentration (MIC) [20]: 1.56; ED50 [21, 22]: 167 mg/kg; ED50 [21, 23]: 5.7 mg/kg
2 | CCCCCCCC(=O)OCC1C=C(C)C=CC(=O)C(C)CC(CC=O)C(OC2OC(C)C(O)C(N(C)C)C2OC(C)=O)C(C)C(O)CC(=O)OC1CC (centres unmarked) [Compound 25] |  |  | 0.25 | 0.25 | 0.25 | 0.5 | 0.25 | 0.5 | 0.5 | 1 |  |  | < 0.05 | 0.78 | 1.56 | 12.5 | 6.25 | 6.25 | 0.097 | 0.195 | minimal inhibitory concentration (MIC) [14]: 12.5; minimal inhibitory concentration (MIC) [15]: 12.5; minimal inhibitory concentration (MIC) [17]: 25; minimal inhibitory concentration (MIC) [20]: 6.25; mortality at 30 mg/kg (Pasteurella multocida): 100%
3 | CCC1OC(=O)CC(O)C(C)C(OC2OC(C)C(O)C(N(C)C)C2OC(=O)Cc2ccccc2)C(CC=O)CC(C)C(=O)C=CC(C)=CC1CO (centres unmarked) [Compound 52, 2'-O-(Phenylacetyl)-OMT] | 2 | 0.5 | 1 | 1 | 0.5 | 2 | 0.5 | 2 | 1 | 0.5 | 0.06 | 0.25 | 3.12 | 3.12 | 1.56 | 25 | 3.12 | 1.56 | 1.56 | 0.78 | minimal inhibitory concentration (MIC) [14]: 12.5; minimal inhibitory concentration (MIC) [15]: 6.25; minimal inhibitory concentration (MIC) [17]: 3.12; minimal inhibitory concentration (MIC) [18]: 3.12; minimal inhibitory concentration (MIC) [20]: 6.25; ED50 [21, 22]: 92 mg/kg; ED50 [21, 23]: 2.1 mg/kg
4 | CCC(=O)OC1C(OC2C(CC=O)CC(C)C(=O)C=CC(C)=CC(COC(C)=O)C(CC)OC(=O)CC(O)C2C)OC(C)C(O)C1N(C)C (centres unmarked) [Compound 11] | 4 | 4 | 0.5 | 1 | 0.5 | 1 | 0.5 | 0.5 | 1 | 1 | 0.25 | 0.5 | 0.39 | 12.5 | 0.39 |  | 25 | 50 | 6.25 | 1.56 | ED50 [21, 22]: > 150 mg/kg; ED50 [21, 23]: 5.3 mg/kg
5 | CCC1OC(=O)CC(O)C(C)C(OC2OC(C)C(OC(C)=O)C(N(C)C)C2OC(C)=O)C(CC=O)CC(C)C(=O)C=CC(C)=CC1COC(=O)C(Cl)Cl (centres unmarked) [Compound 66, 2',4'-Di-O-acetyl-23-O-dichloroacetyl-OMT] | 2 | 1 | 1 | 2 | 1 | 2 | 1 | 2 | 2 | 1 | 0.125 | 0.25 | 1.56 | 6.25 | 1.56 | 25 | 3.12 | 6.25 | 3.12 | < 0.78 | minimal inhibitory concentration (MIC) [14]: 12.5; minimal inhibitory concentration (MIC) [15]: 25; minimal inhibitory concentration (MIC) [17]: 3.12; minimal inhibitory concentration (MIC) [18]: 3.12; minimal inhibitory concentration (MIC) [20]: 3.12
6 | CCC1OC(=O)CC(O)C(C)C(OC2OC(C)C(O)C(N(C)C)C2OC(C)=O)C(CC=O)CC(C)C(=O)C=CC(C)=CC1COC(=O)Cc1cc(OC)ccc1OC (centres unmarked) [Compound 62] | 1 | 2 | 0.125 | 0.25 | 0.25 | 0.25 | 0.125 | 0.25 | 0.125 | 0.125 | 0.03 | 0.06 | < 0.05 | 0.78 | < 0.05 | 6.25 | 3.12 | 12.5 | 0.78 | 0.195 | minimal inhibitory concentration (MIC) [14]: 6.25; minimal inhibitory concentration (MIC) [15]: 3.12; minimal inhibitory concentration (MIC) [17]: 3.12; minimal inhibitory concentration (MIC) [18]: 3.12; minimal inhibitory concentration (MIC) [20]: 6.25
